Reference: patent US20150259295A1, “SUBSTITUTED PYRAZOLE COMPOUNDS AS LPAR ANTAGONISTS” (Hoffmann-La Roche Inc., priority 2012, published 2015)

Columns and labels:
LPA3R = molecular target: T1, LPA3R (Homo sapiens, UniProt Q9UBY5); experiment: LPA3R antagonist activity (Table 1, calcium flux FLIPR); assay type: cell-based
T1 sequence (Q9UBY5 1-353): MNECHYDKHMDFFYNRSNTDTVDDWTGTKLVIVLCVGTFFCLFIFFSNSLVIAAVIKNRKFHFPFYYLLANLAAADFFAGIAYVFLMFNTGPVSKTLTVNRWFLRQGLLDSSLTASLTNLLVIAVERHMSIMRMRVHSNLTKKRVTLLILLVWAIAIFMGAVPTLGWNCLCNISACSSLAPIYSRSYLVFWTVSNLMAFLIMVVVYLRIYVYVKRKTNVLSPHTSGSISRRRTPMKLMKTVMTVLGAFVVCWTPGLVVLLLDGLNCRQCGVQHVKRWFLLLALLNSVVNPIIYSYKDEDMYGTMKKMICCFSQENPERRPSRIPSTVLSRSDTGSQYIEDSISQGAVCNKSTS
Procedure: (§1) Calcium Flux Assay Using Fluorometric Imaging Plate Reader (FLIPR)
(§2) After incubation, both the cell and “assay” plates were brought to the FLIPR and 20 μL of the diluted compounds were transferred to the cell plates by the FLIPR. Compound addition was monitored by FLIPR to detect any agonist activity of the compounds. Plates were then incubated for 30 minutes at room temperature protected from light. After the incubation, plates were returned to the FLIPR and 20 μL of 4.5× concentrated agonist was added to the cell plates. During the assay, fluorescence readings were taken simultaneously from all 384 wells of the cell plate every 1.5 seconds. Five readings were taken to establish a stable baseline, then 20 μL of sample was rapidly (30 μL/sec) and simultaneously added to each well of the cell plate. The fluorescence was continuously monitored before, during and after sample addition for a total elapsed time of 100 seconds. Responses (increase in peak fluorescence) in each well following agonist addition was determined. The initial fluorescence reading from each well, prior to ligand stimulation, was used as zero baseline value for the data from that well. The responses were expressed as % inhibition of the buffer control.

[1] = molecular target: human recombinant LPA1 Lysophospholipid receptor (Homo sapiens, UniProt Q92633); experiment: Calcium flux assay using FLIPR, LPA1R antagonist activity; assay type: cell-based; settings: for IC50: ChemiScreen calcium-optimized stable cell line, FLIPR calcium flux, antagonist mode
human recombinant LPA1 Lysophospholipid receptor, sequence (Q92633 whole entry): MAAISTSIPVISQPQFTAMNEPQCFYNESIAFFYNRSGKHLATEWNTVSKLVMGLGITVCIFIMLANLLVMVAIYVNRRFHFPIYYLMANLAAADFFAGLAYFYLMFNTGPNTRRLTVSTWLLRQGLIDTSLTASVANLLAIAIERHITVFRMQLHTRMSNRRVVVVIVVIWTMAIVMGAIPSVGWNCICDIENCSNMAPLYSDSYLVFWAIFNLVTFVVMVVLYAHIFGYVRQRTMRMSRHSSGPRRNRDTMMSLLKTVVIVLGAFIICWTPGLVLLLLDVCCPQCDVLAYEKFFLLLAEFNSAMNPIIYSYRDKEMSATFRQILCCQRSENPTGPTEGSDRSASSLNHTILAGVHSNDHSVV
Procedure: as §1
Cell Culture Conditions: The ChemiScreen Calcium-optimized stable cell line containing the human recombinant LPA1 Lysophospholipid receptor was purchased from Chemicon International, Inc./Millipore. The cells were cultured in DMEM-high glucose supplemented with 10% fetal bovine serum, 2 mM glutamine, 100 U/mL penicillin/100 μg/mL streptomycin, 1× non-essential amino acids, 10 mM HEPES and 0.25 mg/mL Geneticin. Cells were harvested with trypsin-EDTA and counted using ViaCount reagent. The cell suspension volume was adjusted to 2.0×10^5 cells/mL with complete growth media. Aliquots of 50 μL were dispensed into 384 well black/clear tissue culture treated plates (BD) and the microplates were placed in a 37° C. incubator overnight. The following day plates were used in the assay.
Dye Loading and Assay: Loading Buffer (FLIPR Calcium-4, Molecular Devices) was prepared by dissolving the contents of one bottle into 100 mL Hank's Balanced Salt Solution containing 20 mM HEPES and 2.5 mM probenecid. Plates were loaded onto Biotek plate washer and growth media was removed and replaced with 20 µL of Hank's Balanced Salt Solution containing 20 mM HEPES and 2.5 mM probenecid, followed by 25 μL of Loading Buffer. The plates were then incubated for 30 minutes at 37° C.
During the incubation, test compounds were prepared by adding 90 μL of HBSS/20 mM HEPES/0.1% BSA buffer to 2 μL of serially diluted compounds. To prepare serial dilutions, 10 mM stocks of compounds were prepared in 100% DMSO. The compound dilution plate was set up as follows: well #1 received 29 μL of stock compound and 31 μL DMSO; wells 2-10 received 40 μL of DMSO; mixed and transferred 20 μL of solution from well #1 into well #2; continued with 1:3 serial dilutions out 10 steps; transferred 2 μL of diluted compound into duplicate wells of 384 well “assay plate” and then added the 90 μL of buffer.
as §2

Structure (SMILES)	IC50 (LPA3R) [µM]	inhibition at 30 µM [1] [%]	IC50 [1] [µM]	inhibition at 10 µM ([1]; @ 10 μM) [%]
CC(OC(=O)Nc1c(-c2ccccc2F)cnn1C)c1cccc(C(F)(F)F)c1 (racemic) [Example 12, [4-(2-Fluoro-phenyl)-2-methyl-2H-pyrazol-3-yl]-carbamic acid 1-(3-trifluoromethyl-phenyl)-ethyl ester]	> 30	50.5	24.6	
CC(OC(=O)Nc1c(-c2ccccc2F)cnn1C)c1ccccc1Cl (racemic) [Example 13, [4-(2-Fluoro-phenyl)-2-methyl-2H-pyrazol-3-yl]-carbamic acid 1-(2-chloro-phenyl)-ethyl ester]	> 30		1.4	
C[C@@H](OC(=O)Nc1c(-c2ccccc2)cnn1C)c1ccccc1 [Example 1, 2-Methyl-4-phenyl-2H-pyrazol-3-yl-carbamic acid (R)-1-phenyl-ethyl ester]	> 30	64.8	17.5	
CC(OC(=O)Nc1c(-c2ccccc2)cnn1C)c1ccccc1Cl (stereo not drawn) [Example 3, (2-Methyl-4-phenyl-2H-pyrazol-3-yl)-carbamic acid 1-(2-chloro-phenyl)-ethyl ester]			3.59	
CCOC(=O)C1(c2ccc(-c3ccc(-c4cnn(C)c4NC(=O)O[C@H](C)c4ccccc4)cc3)cc2)CC1 [Example 4, 1-{4′-[1-Methyl-5-((R)-1-phenyl-ethoxycarbonylamino)-1H-pyrazol-4-yl]-biphenyl-4-yl}-cyclopropanecarboxylic acid ethyl ester]	> 30	65.9	1.59	
C[C@@H](OC(=O)Nc1c(-c2ccc(-c3ccccc3)cc2)cnn1C)c1ccccc1 [Example 7, (4-Biphenyl-4-yl-2-methyl-2H-pyrazol-3-yl)-carbamic acid (R)-1-phenyl-ethyl ester]	> 30		> 30	
COc1ccc(-c2cnn(C)c2NC(=O)O[C@H](C)c2ccccc2)cc1 [Example 8, [4-(4-Methoxy-phenyl)-2-methyl-2H-pyrazol-3-yl]-carbamic acid (R)-1-phenyl-ethyl ester]	> 30		> 30	
C[C@@H](OC(=O)Nc1c(-c2ccc(C3(C(=O)O)CC3)cc2)cnn1C)c1ccccc1 [Example 9, 1-{4-[1-Methyl-5-((R)-1-phenyl-ethoxycarbonylamino)-1H-pyrazol-4-yl]-phenyl}-cyclopropanecarboxylic acid]	> 30		> 30	
C[C@@H](OC(=O)Nc1c(-c2ccc(CC(=O)O)cc2)cnn1C)c1ccccc1 [Example 10, {4-[1-Methyl-5-((R)-1-phenyl-ethoxycarbonylamino)-1H-pyrazol-4-yl]-phenyl}-acetic acid]	> 30		> 30	
CC(OC(=O)Nc1c(-c2ccc(F)cc2)cnn1C)c1ccccc1Cl (stereo not drawn) [Example 11, [4-(4-Fluoro-phenyl)-2-methyl-2H-pyrazol-3-yl]-carbamic acid 1-(2-chloro-phenyl)-ethyl ester]			3.93	
CC[C@@H](C)OC(=O)Nc1c(-c2ccc(-c3ccc(C4(C(=O)O)CC4)cc3)cc2)cnn1C [Example 14, (R)-1-{4′-[5-(sec-Butoxycarbonylamino)-1-methyl-1H-pyrazol-4-yl]-biphenyl-4-yl}-cyclopropanecarboxylic acid]	> 30		0.038	
Cn1ncc(-c2ccc(-c3ccc(C4(C(=O)O)CC4)cc3)cc2)c1NC(=O)OC1CCC1 [Example 19, 1-{4′-[5-(cyclobutoxycarbonylamino)-1-methyl-1H-pyrazol-4-yl]-biphenyl-4-yl}-cyclopropanecarboxylic acid]	> 30		0.176	
Cn1ncc(-c2ccc(-c3ccc(C4(C(=O)O)CC4)cc3)cc2)c1NC(=O)OC1COC1 [Example 20, 1-{4′-[1-Methyl-5-((oxetan-3-yloxy)carbonylamino)-1H-pyrazol-4-yl]-biphenyl-4-yl}-cyclopropanecarboxylic acid]	> 30		> 30	
C[C@H](OC(=O)Nc1c(-c2ccccc2F)cnn1C)c1ccccc1Cl [Example 22, [4-(2-Fluoro-phenyl)-2-methyl-2H-pyrazol-3-yl]-carbamic acid (S)-1-(2-chloro-phenyl)-ethyl ester]	> 30		> 30	
C[C@@H](OC(=O)Nc1c(-c2ccccc2F)cnn1C)c1cccc(C(F)(F)F)c1 [Example 23, [4-(2-Fluoro-phenyl)-2-methyl-2H-pyrazol-3-yl]-carbamic acid (R)-1-(3-trifluoromethyl-phenyl)-ethyl ester]	> 30		> 30	

Results, then the compound that gave them:

IC50 (LPA3R) [µM]	inhibition at 30 µM [1] [%]	IC50 [1] [µM]	inhibition at 10 µM ([1]; @ 10 μM) [%]	Structure (SMILES)
> 30		0.035		C[C@@H](OC(=O)Nc1c(-c2ccc(-c3ccc(CC(=O)O)cc3)cc2)cnn1C)c1ccccc1 [Example 2, {4′-[1-Methyl-5-((R)-1-phenyl-ethoxycarbonylamino)-1H-pyrazol-4-yl]-biphenyl-4-yl}-acetic acid]
8.35		0.02		C[C@@H](OC(=O)Nc1c(-c2ccc(-c3ccc(C4(C(=O)O)CC4)cc3)cc2)cnn1C)c1ccccc1 [Example 5, 1-{4′-[1-Methyl-5-((R)-1-phenyl-ethoxycarbonylamino)-1H-pyrazol-4-yl]-biphenyl-4-yl}-cyclopropanecarboxylic acid]
2.47		0.112		CC(OC(=O)Nc1c(-c2ccc(-c3ccc(C4(C(=O)O)CC4)cc3)cc2)cnn1C)c1ccccc1Cl (stereo not drawn) [Example 6, 1-(4′-{5-[1-(2-Chloro-phenyl)-ethoxycarbonylamino]-1-methyl-1H-pyrazol-4-yl}-biphenyl-4-yl)-cyclopropanecarboxylic acid]
> 30		0.107		CC(C)[C@@H](C)OC(=O)Nc1c(-c2ccc(-c3ccc(C4(C(=O)O)CC4)cc3)cc2)cnn1C [Example 15, (R)-1-{4′-[5-(1,2-Dimethyl-propoxycarbonylamino)-1-methyl-1H-pyrazol-4-yl]-biphenyl-4-yl}-cyclopropanecarboxylic acid]
5.8		0.024		C[C@@H](OC(=O)Nc1c(-c2ccc(-c3ccc(C4(C(=O)O)CC4)cc3)cc2)cnn1C)c1ccccc1F [Example 16, (R)-1-{4′-[5-((1-(2-Fluorophenyl)ethoxy)carbonylamino)-1-methyl-1H-pyrazol-4-yl]-biphenyl-4-yl}-cyclopropanecarboxylic acid]
0.478		0.042		C[C@@H](OC(=O)Nc1c(-c2ccc(-c3ccc(C4(C(=O)O)CC4)cc3)cc2)cnn1C)c1cccc(C(F)(F)F)c1 [Example 17, (R)-1-{4′-[1-Methyl-5-((1-(3-(trifluoromethyl)phenyl)ethoxy)carbonylamino)-1H-pyrazol-4-yl]-biphenyl-4-yl}-cyclopropanecarboxylic acid]
8.26		0.057		CC(OC(=O)Nc1c(-c2ccc(-c3ccc(C4(C(=O)O)CC4)cc3)cc2)cnn1C)c1ccc(F)cc1 (stereo not drawn) [Example 18, 1-{4′-[5-((1-(4-fluorophenyl)ethoxy)carbonylamino)-1-methyl-1H-pyrazol-4-yl]-biphenyl-4-yl}-cyclopropanecarboxylic acid]
> 30	97.2	0.644		C[C@@H](OC(=O)Nc1c(-c2ccccc2F)cnn1C)c1ccccc1Cl [Example 21, [4-(2-Fluoro-phenyl)-2-methyl-2H-pyrazol-3-yl]-carbamic acid (R)-1-(2-chloro-phenyl)-ethyl ester]
> 30		0.58	82.8	Cn1ncc(-c2ccc(-c3ccc(C4(C(=O)O)CC4)cc3)cc2)c1NC(=O)NCc1ccccc1 [Example 24, 1-{4′-[5-(3-Benzyl-ureido)-1-methyl-1H-pyrazol-4-yl]-biphenyl-4-yl}-cyclopropanecarboxylic acid]
